Data reported in article PMC10584882 (Communications Biology, 2023).
Where “and” joins values, the source holds several entries; their conditions need not be identical. Equal entries are not always repeated. Where two headings read alike, the source gives them in different places.

How the values were obtained:
SARS-CoV-2 [1] = test: Viral loading determination via RT-qPCR in LC-HK2 cells; assay type: cell-based; details: for Viral titer (% control): LC-HK2, RT-qPCR
SARS-CoV-2 [2] = test: Cytopathic effect inhibition assay in LC-HK2 cells; assay type: cell-based; details: for CPE inhibition (%): LC-HK2
SARS-CoV-2 M^pro = biological target: T1, SARS-CoV-2 M^pro (Severe acute respiratory syndrome coronavirus 2, UniProt P0DTD1); assay type: biochemical
T1 construct: Initially reported to target the viral main protease (M^pro); made in house
Experimental: In the enzyme inhibition assays, the initial velocities were calculated from the initial linear portions of their curves, assuming steady-state kinetics. IC50 and Ki values were calculated using GraphPad Prism software. Z-FR-AMC (CatK and CatV), Z-RR-AMC (CatB and CatL), and QS1 or Acetyl-VKLQ-AMC (M^pro) substrates were used to monitor reactions. These measurements were done in four independent duplicates or triplicates, respectively.

SARS-CoV-2-GFP = test: microbe, parasite or virus in culture; assay type: cell-based; details: Severe acute respiratory syndrome coronavirus 2, Vero C1008, mean with standard error, read-out: VERO E6 EC50
LC-HK2 cells = test: Fluorescence microscopy, S-protein vesicle size in infected LC-HK2 cells; assay type: cell-based, human; details: 1.5 µM, versus control
Experimental: LC-HK2 was cultivated on coverslips (13 mm diameter) to approximately 80% confluence. The cells were pre-treated for 2 h with 1.5 µM of S-Calpeptin diluted in DMEM supplemented with 2.5% FBS. The compounds were removed, and SARS-CoV-2 strain diluted in DMEM supplemented with 2.5% FBS was added to LC-HK2 cells at M.O.I of 0.05, allowing absorption for 1 h. The viral inoculum was removed, and cells were gently washed with PBS without calcium and magnesium. The cells were incubated in the continued presence of 1.5 µM of S-Calpeptin diluted in DMEM supplemented with 2.5% FBS and were examined by fluorescence microscopy at the time points 32, 40, 48, 56, 64 and 72 h post-infection.
For this purpose, the cells were fixed and permeabilized with 3.7% formaldehyde solution (Sigma-Aldrich, F1635) containing 0.2% Triton X-100 in PBS 1×. […] The images were captured using fluorescence range intensity adjusted identically within each experimental series.
Vesicles size quantifications were obtained from 2D maximum projections of Z stacks exported as grayscale TIFs (16-bit depth) using Automated Image Analysis in Zen 2.6 blue software (ZEISS). […]
In the Fluorescence microscopy evaluation, the P-values were generated by unpaired t-test using GraphPad Prism version 8.00 (La Jolla, CA, USA, www.graphpad.com). […]

CatL [3] = biological target: T2, CatL (Homo sapiens, UniProt P07711); test: Reversibility of covalent cathepsin inhibition (CatL, 60 min incubation); assay type: biochemical; details: 1 nM CatL, 1–80 nM inhibitor, 37 °C
T2 construct: made in house
T2 sequence (P07711 114-333): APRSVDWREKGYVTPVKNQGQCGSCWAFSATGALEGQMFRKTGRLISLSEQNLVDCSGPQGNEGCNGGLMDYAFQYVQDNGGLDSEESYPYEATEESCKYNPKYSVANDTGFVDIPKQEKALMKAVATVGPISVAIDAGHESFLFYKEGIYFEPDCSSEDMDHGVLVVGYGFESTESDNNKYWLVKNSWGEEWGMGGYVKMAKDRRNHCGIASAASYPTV
Excerpt: We observed no increase in relative inhibition over time, thus concluding that the covalent bond between cathepsins and inhibitors is reversible.

CatL [4] = biological target: T2, CatL; test: Cathepsin inhibition test, CatL; assay type: biochemical; details: for Residual activity (Vi/V0): Fig. S3 panel b, single replicates
human CatV = biological target: T3, human CatV (Homo sapiens, UniProt O60911); test: Cathepsin inhibition test, CatV; assay type: biochemical; details: Fig. S3 panel c, single replicates
T3 construct: made in house
T3 sequence (O60911 114-334): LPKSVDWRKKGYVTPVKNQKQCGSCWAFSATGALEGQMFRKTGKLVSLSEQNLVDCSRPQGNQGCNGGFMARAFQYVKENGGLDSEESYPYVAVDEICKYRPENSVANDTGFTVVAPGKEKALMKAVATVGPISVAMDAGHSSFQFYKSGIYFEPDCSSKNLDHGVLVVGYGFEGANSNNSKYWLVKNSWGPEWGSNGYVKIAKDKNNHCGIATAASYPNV

[5] = inhibitor 0.105 nM, 0.000105 µM
[6] = inhibitor 0.189 nM, 0.000189 µM
[7] = inhibitor 0.612 nM, 0.000612 µM
[8] = inhibitor 1.103 nM, 0.001103 µM
[9] = inhibitor 1.985 nM, 0.001985 µM

CCCC[C@@H](C=O)NC(=O)[C@H](CC(C)C)NC(=O)OCc1ccccc1 [Calpeptin, reference compound] was tested, and the “Viral titer (% control)” value (SARS-CoV-2 [1]; 0.0006 μM) was 100 % control, the “Viral titer (% control)” value (SARS-CoV-2 [1]; 0.0012 μM) was 100 % control and the “Viral titer (% control)” value (SARS-CoV-2 [1]; 0.0024 μM) was 100 % control. The “Viral titer (% control)” value (SARS-CoV-2 [1]; 0.0049 μM) was 100 % control, the “Viral titer (% control)” value (SARS-CoV-2 [1]; 0.0098 μM) was 100 % control and the “Viral titer (% control)” value (SARS-CoV-2 [1]; 0.0195 μM) was 100 % control. The “Viral titer (% control)” value (SARS-CoV-2 [1]; 0.0391 μM) was 100 % control, the “Viral titer (% control)” value (SARS-CoV-2 [1]; 0.0781 μM) was 100 % control and the “Viral titer (% control)” value (SARS-CoV-2 [1]; 0.1563 μM) was 100 % control and 71.76 % control. For the same compound, the “Viral titer (% control)” value (SARS-CoV-2 [1]; 0.3125 μM) was 77.19 % control and 100 % control, the “Viral titer (% control)” value (SARS-CoV-2 [1]; 0.625 μM) was 85.89 % control and 100 % control and the “Viral titer (% control)” value (SARS-CoV-2 [1]; 1.25 μM) was 75.06 % control and 100 % control. For the same compound, the “Viral titer (% control)” value (SARS-CoV-2 [1]; 100 μM) was 0 % control, the EC50 (SARS-CoV-2 [1]; Severe acute respiratory syndrome coronavirus 2, LC-HK2, RT-qPCR, 72 h post-infection, read-out: Viral titer EC50) was 1.7 µM and the “CPE inhibition (%)” value (SARS-CoV-2 [2]; 0.0000000001 μM, 1e-10 µM) was 6.04%. For the same compound, the “CPE inhibition (%)” value (SARS-CoV-2 [2]; 0.00000001 μM, 10 fM) was 8.96%, the “CPE inhibition (%)” value (SARS-CoV-2 [2]; 0.0000001 μM, 100 fM) was 9.11% and the “CPE inhibition (%)” value (SARS-CoV-2 [2]; 0.001 μM) was 0.77%. The “CPE inhibition (%)” value (SARS-CoV-2 [2]; 0.01 μM) was 24.54%, the “CPE inhibition (%)” value (SARS-CoV-2 [2]; 0.1 μM) was 36.51% and the “CPE inhibition (%)” value (SARS-CoV-2 [2]; 1 μM) was 50.4%. For the same compound, the “CPE inhibition (%)” value (SARS-CoV-2 [2]; 10 μM) was 59.73%, the inhibition at 1e-12 µM (SARS-CoV-2 [2]; Severe acute respiratory syndrome coronavirus 2, LC-HK2, 0.000000000001 μM (first of two lines so printed, r18), read-out: CPE inhibition (%)) was 0% and the inhibition at 1e-12 µM (SARS-CoV-2 [2]; Severe acute respiratory syndrome coronavirus 2, LC-HK2, 0.000000000001 μM (second line, r19), read-out: CPE inhibition (%)) was 0%. It also gave an inhibition at 1e-11 µM (SARS-CoV-2 [2]; Severe acute respiratory syndrome coronavirus 2, LC-HK2, 0.00000000001 μM, read-out: CPE inhibition (%)) of 0%, an inhibition at 1 fM (SARS-CoV-2 [2]; Severe acute respiratory syndrome coronavirus 2, LC-HK2, 0.000000001 μM, read-out: CPE inhibition (%)) of 0% and an inhibition at 10 pM (SARS-CoV-2 [2]; Severe acute respiratory syndrome coronavirus 2, LC-HK2, 0.00001 μM, read-out: CPE inhibition (%)) of 0%. It also gave an inhibition at 0.0001 µM (SARS-CoV-2 [2]; Severe acute respiratory syndrome coronavirus 2, LC-HK2, 0.0001 μM, read-out: CPE inhibition (%)) of 0%, an inhibition at 0.01 µM (SARS-CoV-2 [2]; Severe acute respiratory syndrome coronavirus 2, LC-HK2, 0.01 μM, read-out: CPE inhibition (%)) of 19% and an inhibition at 0.1 µM (SARS-CoV-2 [2]; Severe acute respiratory syndrome coronavirus 2, LC-HK2, 0.1 μM, read-out: CPE inhibition (%)) of 24.4%. It also gave an inhibition at 1 µM (SARS-CoV-2 [2]; Severe acute respiratory syndrome coronavirus 2, LC-HK2, 1 μM, read-out: CPE inhibition (%)) of 60.8%, an inhibition at 10 µM (SARS-CoV-2 [2]; Severe acute respiratory syndrome coronavirus 2, LC-HK2, 10 μM, read-out: CPE inhibition (%)) of 52.8% and an EC50 (SARS-CoV-2 [2]; Severe acute respiratory syndrome coronavirus 2, LC-HK2, CellTiter-Glo, 72 h post-infection, read-out: CPE inhibition EC50) of 0.06 µM. For the same compound, the “range of M^pro inhibition (in words)” value (SARS-CoV-2 M^pro) was “micromolar range”, the EC50 (SARS-CoV-2-GFP) was 0.183 ± 0.065 µM and the “impact on vesicle morphology / S-protein vesicle size” value (LC-HK2 cells) was “no substantial impact on vesicle morphology”. For the same compound, the “reversibility of covalent bond to cathepsin” value (CatL [3]) was “reversible”, the “Residual activity (Vi/V0)” value (CatL [4]; inhibitor 0.010 nM, 10 pM) was 1.181 and 1.134 and 0.9277 and 1.059 and 0.8624 and 0.9348 and 0.9777 and 1.017 and 0.9832 and 0.6727 and the “Residual activity (Vi/V0)” value (CatL [4]; inhibitor 0.018 nM, 18 pM) was 1.262 and 1.015 and 0.8756 and 0.9203 and 0.9271 and 0.9762 and 0.9712 and 1.058 and 1.013 and 1.061. The “Residual activity (Vi/V0)” value (CatL [4]; inhibitor 0.032 nM, 32 pM) was 1.274 and 1.3352 and 0.8294 and 0.9418 and 0.8372 and 0.9412 and 1.0025 and 0.9769 and 1.076 and 1.186, the “Residual activity (Vi/V0)” value (CatL [4]; inhibitor 0.058 nM, 58 pM) was 1.241 and 1.238 and 0.7232 and 0.8381 and 0.7506 and 0.9356 and 0.9293 and 0.9501 and 1.073 and 1.146 and the “Residual activity (Vi/V0)” value (CatL [4]; [5]) was 1.299 and 0.9537 and 0.6352 and 0.6893 and 0.6342 and 0.9772 and 0.9319 and 0.9262 and 1.17 and 1.244. The “Residual activity (Vi/V0)” value (CatL [4]; [6]) was 1.276 and 0.7939 and 0.4796 and 0.5261 and 0.4831 and 0.8363 and 0.8485 and 0.8665 and 1.045 and 0.9948, the “Residual activity (Vi/V0)” value (CatL [4]; inhibitor 0.340 nM, 0.00034 µM) was 1.076 and 0.6362 and 0.1912 and 0.3311 and 0.2442 and 0.7013 and 0.6724 and 0.6039 and 0.9136 and 0.9341 and the “Residual activity (Vi/V0)” value (CatL [4]; [7]) was 0.7699 and 0.3953 and 0.2966 and 0.328 and 0.2718 and 0.8608 and 0.8769 and 0.888 and 0.6121 and 0.7229. For the same compound, the “Residual activity (Vi/V0)” value (CatL [4]; [8]) was 0.6194 and 0.292 and 0.1922 and 0.2117 and 0.1777 and 0.7372 and 0.725 and 0.6702 and 0.5009 and 0.6045, the “Residual activity (Vi/V0)” value (CatL [4]; [9]) was 0.4333 and 0.2071 and 0.1127 and 0.1262 and 0.1102 and 0.4283 and 0.4219 and 0.4519 and 0.4308 and 0.4332 and the Ki (CatL [4]; mean with standard deviation and 95% confidence interval, pH 5.5, 37 °C) was 0.000131 µM. For the same compound, the “Residual activity (Vi/V0)” value (human CatV; inhibitor 0.010 nM, 10 pM) was 0.7492 and 0.8662 and 0.9665 and 0.9783 and 1.034 and 0.8959 and 1.049 and 1.043, the “Residual activity (Vi/V0)” value (human CatV; inhibitor 0.018 nM, 18 pM) was 1.426 and 1.071 and 0.8111 and 0.946 and 1.016 and 0.7983 and 1.052 and 1.107 and the “Residual activity (Vi/V0)” value (human CatV; inhibitor 0.032 nM, 32 pM) was 0.6155 and 0.7103 and 0.8989 and 0.8852 and 0.9741 and 0.7786 and 1.073 and 1.106. For the same compound, the “Residual activity (Vi/V0)” value (human CatV; inhibitor 0.058 nM, 58 pM) was 0.4678 and 0.5573 and 0.8821 and 0.907 and 0.9499 and 0.7317 and 1.135 and 1.04, the “Residual activity (Vi/V0)” value (human CatV; [5]) was 0.3395 and 0.4697 and 0.9391 and 1.0131 and 0.8776 and 0.5515 and 1.047 and 0.9299 and the “Residual activity (Vi/V0)” value (human CatV; [6]) was 0.2218 and 0.3638 and 0.7852 and 0.7629 and 0.7844 and 0.3361 and 0.9055 and 0.7253. The “Residual activity (Vi/V0)” value (human CatV; inhibitor 0.340 nM, 0.00034 µM) was 0.127 and 0.1861 and 0.5926 and 0.6199 and 0.6546 and 0.1805 and 0.6841 and 0.4951, the “Residual activity (Vi/V0)” value (human CatV; [7]) was 0.08315 and 0.0899 and 0.6171 and 0.6648 and 0.6032 and 0.1116 and 0.3127 and 0.292 and the “Residual activity (Vi/V0)” value (human CatV; [8]) was 0.07258 and 0.065 and 0.4015 and 0.4879 and 0.4441 and 0.08067 and 0.1763 and 0.1568. For the same compound, the “Residual activity (Vi/V0)” value (human CatV; [9]) was 0.02995 and 0.03856 and 0.2299 and 0.2925 and 0.2801 and 0.03165 and 0.06168 and 0.07508, the “Residual activity (Vi/V0)” value (human CatV; inhibitor 3.572 nM, 0.003572 µM) was 0.007933 and 0.009299 and 0.124 and 0.1265 and 0.09125 and 0.0154 and 0.02738 and 0.02841 and the “Residual activity (Vi/V0)” value (human CatV; inhibitor 6.430 nM, 0.00643 µM) was 0.0062 and 0.004492 and 0.03048 and 0.04147 and 0.02591 and 0.007404 and 0.008251 and 0.01699. The “Residual activity (Vi/V0)” value (human CatV; inhibitor 11.547 nM, 0.011547 µM) was 0.001379 and -0.0006257 and 0.001045 and 0.01451.
